Assay results from patent US20130123326A1, “ALLOSTERIC BINDING COMPOUNDS” (REGION MIDTJYLLAND, priority 2009, published 2013).
Where two headings read alike, the source gives them in different places.

Columns and labels:
hSERT = hSERT (Homo sapiens, UniProt P31645); experiment: Dissociation assay with [3H]-citalopram and hSERT membrane preparations; format: binding; details: for Max. Stability (maximum stabilization factor): estimated upper plateau of sigmoidal response curve: how many folds the off-rate of bound radioligand from SERT can be attenuated, N/A = No activity
Chain of hSERT (P31645 whole entry): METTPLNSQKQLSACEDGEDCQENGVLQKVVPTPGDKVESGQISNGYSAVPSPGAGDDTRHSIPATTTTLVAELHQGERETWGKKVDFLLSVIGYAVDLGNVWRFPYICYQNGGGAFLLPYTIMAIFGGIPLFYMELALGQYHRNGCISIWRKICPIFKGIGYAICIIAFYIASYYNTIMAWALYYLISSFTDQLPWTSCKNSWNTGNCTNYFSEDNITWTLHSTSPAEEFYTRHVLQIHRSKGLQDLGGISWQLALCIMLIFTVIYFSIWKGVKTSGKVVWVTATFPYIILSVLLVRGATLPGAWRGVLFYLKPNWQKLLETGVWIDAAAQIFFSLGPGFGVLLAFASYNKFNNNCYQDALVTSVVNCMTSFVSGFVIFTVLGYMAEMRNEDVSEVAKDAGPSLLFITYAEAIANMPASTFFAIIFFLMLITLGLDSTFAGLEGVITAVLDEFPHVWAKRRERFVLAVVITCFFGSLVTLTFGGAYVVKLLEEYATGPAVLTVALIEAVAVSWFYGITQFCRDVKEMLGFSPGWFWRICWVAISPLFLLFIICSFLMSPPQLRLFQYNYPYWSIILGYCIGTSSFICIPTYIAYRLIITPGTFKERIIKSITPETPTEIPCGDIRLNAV
Method: Dulbecco's modified Eagle's medium, fetal bovine serum, trypsin, and penicillin/streptomycin were purchased from Invitrogen. Cell culture flasks were from NUNC. MicroScint-20 scintillation mixture was from Packard. [^3H]-Citalopram (85 Ci/mmol) was a gift from H. Lundbeck A/S (Valby, Denmark). Fugene-6 transfection reagent was from Roche Molecular Biochemicals. All chemicals are commercially available. Stock solutions of the allosteric ligands were prepared as 100 mM in EtOH.
The pcDNA3 plasmid vector containing the hSERT gene was used for transfection.
17.5 μl Fugene-6 (Roche Molecular Biochemicals) were mixed with 280 μl Dulbecco's modified Eagle's medium, and incubated at room temperature for 5 minutes. 10 μg of hSERT plasmid were added and the mixture was further incubated at least 15 minutes. […] The cells were plated at 35% confluency in a 150 mm dish, and grown at 37° C. for 64 h. Prior to harvesting the dish was rinsed in PBS. Cells were harvested with a cell scraper in buffer 1 (50 mM Tris-base, 150 mM NaCl, 20 mM EDTA, pH 7.4). After centrifugation (3000 g at 4° C. for 10 mins), cells were suspended and homogenized with an IKA Ultra-Turrax from Rose Scientific Ltd (Edmonton, Alberta, Canada) for 20 s in buffer 1. Membranes were pelleted by ultracentrifugation (12 000 g at 4° C. for 15 min) and homogenization was repeated in buffer 1. Finally, after ultracentrifugation (12000 g, 4° C., 15 min) membranes were resuspended in 1 ml buffer 3 (50 mM Tris-base, 120 mM NaCl, 5 mM KCl, pH 7.4) and stored at −80° C.
Dissociation Assay with [^3H]-Citalopram and Membrane Preparations.
SERT-[^3H]-citalopram complex was formed by incubating hSERT membrane preparation and radioligand in buffer 3 during a 60 min incubation at 4° C. Radioligand was present at a concentration 10 times the Kd value. The time kinetic of dissociation was followed by adding 10 μL complex solution to 250 μL buffer 3 in 96-well plates and incubating subsequently for increasing time intervals at RT. Reactions were terminated by filtration through GF/C glass-fibre filters (Unifilter, Perkin Elmer Life Sciences), preincubated with 40 μl 0.5% polyethyleneimine, using a Pachard Bell cell harvester, and subsequently washed three times with water. Filters were soaked in 40 μl Microscint 20 scintillation liquid (Pachard Bell). Bound radioactivity was determined by direct counting of plates using a Packard Bell microplate scintillation counter. Dissociation curves were obtained by plotting residual binding vs. time of dissociation.
The concentrations of allosteric compound in the dissociation buffer range from 400-0.2 μM.
The relative off-rate is expressed as the off-rate of the radioligand at a given concentration of allosteric compound, normalized to the off-rate of radioligand in the absence of allosteric compound.
The maximum stabilization factor is defined as the estimated upper plateau of the sigmoidal response curve, and describes how many folds the off-rate of bound radioligand from SERT can be attenuated in the presence of increasing concentrations of allosteric compound in the dissociation buffer.

Balb/cJ male mice = experiment: Forced swim test (FST); format: in vivo; details: intraperitoneally 30 min prior to FST, seven minutes scoring period
Method: FIGS. 5A and 5B. Effect of allosteric compound in the mouse forced swim test (FST). Drugs were dissolved in 10% β-2-hydroxy-cyclodextrine. Male BalB/c were injected intraperitoneally with 500 μl SSRI alone or in combination with allosteric compound 30 min prior to FST (n=8). Vehicle treated animals each received 500 μl 10% 13-2-hydroxy-cyclodextrine. […] FIG. 5B depicts the effect of 5 mg/(kg bodyweight) of escitalopram alone and in combination with 15 mg/(kg bodyweight) of the allosteric compound of Example 1 (denoted ALN10 in figure). […]
FST is a behavioral model widely used to assess antidepressant-like activity in mice Porsholt et al, 1978). […] The total duration of immobility within a seven minute test period, is the main parameter measured. […]
Male BalB/c were injected intraperitoneally with 500 μl SSRI alone or in combination with allosteric compound 30 min prior to the swimming session (n=6). […] Swim sessions were videofilmed and analyzed by a blind scorer using stop watch, or by analyzing software (Ethovision, Noldus). The parameter measured was amount of time spent in a state of immobility, including small movements to keep balance and head over water. […]
FIGS. 5A and 5B gives the results from the forced swim test for the compound of Example 1. […] The dose of SSRI was chosen to be the highest sub-active concentration determined. […]

[1] = concentration of allosteric compound inducing 50% attenuation of the off-rate of the radioligand from SERT, 10 μM fluoxetine in dissociation buffer, read-out: EC50

SMILES | EC50 (hSERT; [1]) [µM] | Max. Stability (maximum stabilization factor) (hSERT) | EC50 (hSERT) [µM] | immobility time in FST, combination with escitalopram (Balb/cJ male mice; 15 mg/kg allosteric compound + 5 mg/kg (subactive) escitalopram) | immobility time in FST, combination with fluoxetine (Balb/cJ male mice; 15 mg/kg allosteric compound + 5 mg/kg (subactive) fluoxetine)
CCCOC(=O)c1cccc2ccccc12 [Example 3, 1-Naphthoic Acid Propyl Ester] | 2.1 | 17 | – | – | –
CCCCSc1cccc2ccccc12 [Example 14, 1-Butyl-Sulfanyl-1-Naphthalene] | 12 | 3.6 | – | – | –
C=CCSc1cccc2ccccc12 [Example 17] | 3.2 | 6.3 | – | – | –
C#CCSc1cccc2ccccc12 [Example 16, 3-Ethynyl-Sulfanyl-1-Naphthalene] | 1.2 | 10.3 | – | – | –
O=C(OC1CCCC1)c1cccc2ccccc12 [Example 32, 1-Naphthoic Acid Cyclopentyl Ester] | 9.6 | 10 | – | – | –
COC(=O)c1cccc2ccccc12 [Example 2, 1-Naphthoic Acid Methyl Ester] | 29 | 7.4 | – | – | –
OCCSc1cccc2ccccc12 [Example 15, 2-Hydroxyethyl-1-Naphthyl Sulphide] | 4.6 | 10.2 | – | – | –
CCOC(=O)n1nnc2ccccc21 [Example 29, Benzotriazole-1-Carboxylic Acid Ethyl Ester] | 61 | 5.4 | – | – | –
CCOC(=O)n1ccc2ccc(C)cc21 [Example 27, 6-Methyl-Indole-1-Carboxylic Acid Ethyl Ester] | 34 | 15 | – | – | –
CSc1cccc2ccccc12 [Example 12, Methyl-[1]Naphthyl Sulphide] | 17 | 10 | – | – | –
CCOC(=O)n1cc(C)c2ccccc21 [Example 35, 3-Methyl-Indole-1-Carboxylic Acid Ethyl Ester] | 5 | 6 | – | – | –
CCOS(=O)(=O)c1cccc2ccccc12 [reference compound] | – | 3.1 | 120 | – | –
CCOC(=O)n1ccc2ccccc21 [Example 24, Indole-1-Carboxylic Acid Ethyl Ester] | 1.3 | 9 | – | – | –
CCOC(=O)n1ccc2ccc(Cl)cc21 [Example 28, 6-Chloro-Indole-1-Carboxylic Acid Ethyl Ester] | 31 | 8.8 | – | – | –
CCSc1cccc2ccccc12 [Example 13, Ethyl-[1]Naphthyl Sulphide] | 9.4 | 8.3 | – | – | –
Sc1cccc2ccccc12 [reference compound] | > 1000 | – | – | – | –
CCOC(=O)c1cccc2ccccc12 [Example 1, 1-Naphthoic Acid Ethyl Ester] | 3.3 | 9.1 | – | significantly reduced immobility time | significantly reduced immobility time
CCCOc1cccc2ccccc12 [Example 21, 1-Propoxy-Naphthalene] | 46 | 3.9 | – | – | –
C#CCOC(=O)c1cccc2ccccc12 [Example 9, 1-Naphthoic Acid 2-Propynyl Ester] | 15 | 13 | – | – | –
O=C(OCCO)c1cccc2ccccc12 [Example 6, 1-Naphthoic Acid 2-Hydroxyethyl Ester] | 14.5 | 20 | – | – | –
CCCSc1cccc2ccccc12 [Example 11, 1-Propyl-Sulfanyl-1-Naphthalene] | 4.7 | 6.4 | – | – | –
C=CCOC(=O)c1cccc2ccccc12 [Example 8, 1-Naphthoic Acid 2-Propenyl Ester] | 16 | 11 | – | – | –
CCNC(=O)c1cccc2ccccc12 [Example 10, 1-Naphthoic Acid Ethylamide] | 74 | 1.8 | – | – | –
CC(C)OC(=O)c1cccc2ccccc12 [Example 4, 1-Naphthoic Acid Isopropyl Ester] | 9.8 | 16 | – | – | –
